Here are results for 19 molecules from ChEMBL document CHEMBL3991601, “The target landscape of clinical kinase drugs” (Science, 2017).

Active and inactive are the calls of the source.

Experiment [1] concerns the target Cyclin-dependent kinase 17 (Homo sapiens, UniProt Q00537).
Experiment [2] addresses Cyclin-dependent kinase 2 (Homo sapiens, UniProt P24941).
Experiment [3] has as its target Serine/threonine-protein kinase PAK 6 (Homo sapiens, UniProt Q9NQU5).
Experiment [4] concerns the target Uncharacterized aarF domain-containing protein kinase 5 (Homo sapiens, UniProt Q3MIX3).
In experiment [5] the target is T1, Eukaryotic translation initiation factor 5B (Homo sapiens, UniProt O60841).
T1 sequence (O60841 whole entry): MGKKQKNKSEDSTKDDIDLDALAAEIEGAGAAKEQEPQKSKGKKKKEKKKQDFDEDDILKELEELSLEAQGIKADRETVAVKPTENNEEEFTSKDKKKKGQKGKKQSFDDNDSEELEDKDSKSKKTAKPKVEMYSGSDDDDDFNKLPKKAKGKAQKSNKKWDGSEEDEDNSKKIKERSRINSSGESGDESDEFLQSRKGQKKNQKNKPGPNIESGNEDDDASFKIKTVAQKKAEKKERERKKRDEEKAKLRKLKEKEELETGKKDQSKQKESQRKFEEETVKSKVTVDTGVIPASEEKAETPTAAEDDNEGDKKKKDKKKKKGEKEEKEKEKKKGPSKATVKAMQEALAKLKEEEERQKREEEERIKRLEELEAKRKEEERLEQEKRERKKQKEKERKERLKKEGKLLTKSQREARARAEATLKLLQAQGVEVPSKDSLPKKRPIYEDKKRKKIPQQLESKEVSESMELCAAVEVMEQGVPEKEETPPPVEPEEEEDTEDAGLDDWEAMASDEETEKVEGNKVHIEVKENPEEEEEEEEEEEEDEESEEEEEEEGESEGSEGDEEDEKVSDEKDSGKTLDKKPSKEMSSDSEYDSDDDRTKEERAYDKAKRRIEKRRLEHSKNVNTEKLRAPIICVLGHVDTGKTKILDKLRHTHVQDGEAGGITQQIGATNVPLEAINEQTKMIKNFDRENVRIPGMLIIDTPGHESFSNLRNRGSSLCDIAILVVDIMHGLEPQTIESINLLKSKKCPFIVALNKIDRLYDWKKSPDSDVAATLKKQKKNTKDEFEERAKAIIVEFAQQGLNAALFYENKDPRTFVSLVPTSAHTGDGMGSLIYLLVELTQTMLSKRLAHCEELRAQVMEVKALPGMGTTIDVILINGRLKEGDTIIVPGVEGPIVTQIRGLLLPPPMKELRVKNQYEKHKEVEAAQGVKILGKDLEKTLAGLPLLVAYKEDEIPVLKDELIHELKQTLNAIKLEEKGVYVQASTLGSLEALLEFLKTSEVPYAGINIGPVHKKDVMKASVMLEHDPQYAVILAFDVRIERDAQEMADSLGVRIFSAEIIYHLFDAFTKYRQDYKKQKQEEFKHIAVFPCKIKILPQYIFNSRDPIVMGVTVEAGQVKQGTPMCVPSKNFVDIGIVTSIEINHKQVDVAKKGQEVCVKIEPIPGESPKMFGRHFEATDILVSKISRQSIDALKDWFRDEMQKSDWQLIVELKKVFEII

In experiment [6] the target is PAS domain-containing serine/threonine-protein kinase (Homo sapiens, UniProt Q96RG2).
Chain of PAS domain-containing serine/threonine-protein kinase (Q96RG2 whole entry, the tested form may be a part): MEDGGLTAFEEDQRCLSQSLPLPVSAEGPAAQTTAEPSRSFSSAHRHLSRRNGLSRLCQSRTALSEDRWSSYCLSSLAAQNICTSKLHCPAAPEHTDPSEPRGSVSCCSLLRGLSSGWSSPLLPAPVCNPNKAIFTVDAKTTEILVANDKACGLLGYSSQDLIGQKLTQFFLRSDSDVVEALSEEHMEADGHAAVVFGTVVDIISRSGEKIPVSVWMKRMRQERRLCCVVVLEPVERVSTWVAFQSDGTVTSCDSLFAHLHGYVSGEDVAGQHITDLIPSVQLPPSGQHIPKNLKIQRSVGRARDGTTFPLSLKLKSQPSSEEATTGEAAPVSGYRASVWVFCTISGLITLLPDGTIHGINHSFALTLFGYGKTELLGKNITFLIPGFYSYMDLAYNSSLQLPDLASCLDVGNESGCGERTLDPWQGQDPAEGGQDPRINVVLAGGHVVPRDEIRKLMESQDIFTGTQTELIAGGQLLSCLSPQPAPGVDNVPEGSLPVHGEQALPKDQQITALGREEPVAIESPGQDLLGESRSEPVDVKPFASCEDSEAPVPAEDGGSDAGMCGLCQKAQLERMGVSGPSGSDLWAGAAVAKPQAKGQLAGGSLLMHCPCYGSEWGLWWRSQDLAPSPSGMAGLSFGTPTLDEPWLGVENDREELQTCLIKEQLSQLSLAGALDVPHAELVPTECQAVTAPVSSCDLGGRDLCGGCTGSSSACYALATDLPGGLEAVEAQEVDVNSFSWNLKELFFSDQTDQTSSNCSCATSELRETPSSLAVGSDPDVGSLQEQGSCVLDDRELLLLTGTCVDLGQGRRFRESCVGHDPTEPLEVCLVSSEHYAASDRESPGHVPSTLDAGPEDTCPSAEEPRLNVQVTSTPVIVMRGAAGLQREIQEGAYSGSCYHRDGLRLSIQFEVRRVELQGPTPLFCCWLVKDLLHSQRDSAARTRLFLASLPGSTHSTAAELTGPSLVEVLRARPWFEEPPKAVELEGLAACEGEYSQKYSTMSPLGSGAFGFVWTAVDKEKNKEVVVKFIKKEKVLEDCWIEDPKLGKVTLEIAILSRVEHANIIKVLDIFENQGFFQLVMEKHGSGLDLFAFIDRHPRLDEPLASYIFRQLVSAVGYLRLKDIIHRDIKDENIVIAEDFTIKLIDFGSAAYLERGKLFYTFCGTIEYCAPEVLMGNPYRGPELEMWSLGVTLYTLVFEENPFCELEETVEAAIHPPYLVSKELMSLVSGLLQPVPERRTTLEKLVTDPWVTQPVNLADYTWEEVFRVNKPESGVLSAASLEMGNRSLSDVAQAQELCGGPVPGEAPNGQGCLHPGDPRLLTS
The target in experiment [7] is Serine/threonine-protein kinase N3 (Homo sapiens, UniProt Q6P5Z2).
Chain of Serine/threonine-protein kinase N3 (Q6P5Z2 whole entry): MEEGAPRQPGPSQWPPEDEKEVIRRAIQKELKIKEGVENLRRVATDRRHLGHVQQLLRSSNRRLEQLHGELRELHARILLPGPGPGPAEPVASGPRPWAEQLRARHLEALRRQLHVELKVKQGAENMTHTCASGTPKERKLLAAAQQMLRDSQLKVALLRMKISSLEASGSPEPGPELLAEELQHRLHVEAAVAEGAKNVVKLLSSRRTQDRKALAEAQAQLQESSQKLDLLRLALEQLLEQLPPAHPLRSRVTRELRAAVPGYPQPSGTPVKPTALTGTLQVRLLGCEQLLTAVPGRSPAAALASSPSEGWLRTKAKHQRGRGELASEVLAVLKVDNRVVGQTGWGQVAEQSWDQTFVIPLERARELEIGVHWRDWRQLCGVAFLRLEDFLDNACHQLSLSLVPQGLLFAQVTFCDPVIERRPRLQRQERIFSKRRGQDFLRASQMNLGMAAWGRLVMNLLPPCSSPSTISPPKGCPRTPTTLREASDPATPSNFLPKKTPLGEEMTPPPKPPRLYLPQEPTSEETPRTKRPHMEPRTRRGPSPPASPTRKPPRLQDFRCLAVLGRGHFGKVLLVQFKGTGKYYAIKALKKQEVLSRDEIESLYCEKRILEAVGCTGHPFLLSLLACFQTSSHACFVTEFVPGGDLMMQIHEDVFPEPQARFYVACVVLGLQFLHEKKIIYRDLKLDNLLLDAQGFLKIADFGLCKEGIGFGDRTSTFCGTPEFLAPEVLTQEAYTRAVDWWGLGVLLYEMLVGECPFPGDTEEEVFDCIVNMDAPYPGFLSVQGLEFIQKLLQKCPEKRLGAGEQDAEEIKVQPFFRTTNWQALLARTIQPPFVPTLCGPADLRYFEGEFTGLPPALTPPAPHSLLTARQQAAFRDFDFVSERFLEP
Experiment [8] concerns the target T2, Isoleucine--tRNA ligase, mitochondrial (Homo sapiens, UniProt Q9NSE4).
T2 sequence (Q9NSE4 whole entry): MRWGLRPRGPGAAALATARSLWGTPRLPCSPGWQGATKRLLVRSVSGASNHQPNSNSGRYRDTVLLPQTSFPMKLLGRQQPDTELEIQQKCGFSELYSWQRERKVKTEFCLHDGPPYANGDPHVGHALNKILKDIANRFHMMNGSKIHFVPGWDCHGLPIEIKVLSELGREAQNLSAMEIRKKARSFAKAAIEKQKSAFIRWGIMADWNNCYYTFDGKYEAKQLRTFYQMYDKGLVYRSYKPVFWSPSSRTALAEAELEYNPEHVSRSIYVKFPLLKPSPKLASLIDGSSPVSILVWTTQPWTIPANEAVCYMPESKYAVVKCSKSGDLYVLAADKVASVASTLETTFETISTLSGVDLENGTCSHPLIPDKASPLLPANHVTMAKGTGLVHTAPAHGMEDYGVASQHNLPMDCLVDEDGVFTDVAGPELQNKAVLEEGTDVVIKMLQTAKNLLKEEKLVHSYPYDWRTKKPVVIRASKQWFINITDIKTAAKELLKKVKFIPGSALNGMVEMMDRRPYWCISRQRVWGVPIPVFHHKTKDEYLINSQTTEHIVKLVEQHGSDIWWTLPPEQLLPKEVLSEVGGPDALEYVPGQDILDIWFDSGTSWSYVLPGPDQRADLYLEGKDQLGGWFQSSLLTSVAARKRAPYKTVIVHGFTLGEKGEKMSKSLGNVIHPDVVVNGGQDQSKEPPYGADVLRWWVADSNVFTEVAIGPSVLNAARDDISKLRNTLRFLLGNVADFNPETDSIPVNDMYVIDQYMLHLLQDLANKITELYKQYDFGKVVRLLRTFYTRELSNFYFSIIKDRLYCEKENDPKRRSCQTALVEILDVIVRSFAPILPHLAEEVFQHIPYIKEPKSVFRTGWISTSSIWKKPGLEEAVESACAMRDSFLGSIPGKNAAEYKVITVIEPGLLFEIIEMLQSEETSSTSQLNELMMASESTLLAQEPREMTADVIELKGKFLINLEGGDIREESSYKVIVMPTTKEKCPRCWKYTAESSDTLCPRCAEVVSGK

Another experiment concerns the target Myosin-10 (Homo sapiens, UniProt P35580).
Also: in the data inactive means no Kd found up to 30 µM.

Chain of Serine/threonine-protein kinase PAK 6 (Q9NQU5 whole entry, the tested form may be a part): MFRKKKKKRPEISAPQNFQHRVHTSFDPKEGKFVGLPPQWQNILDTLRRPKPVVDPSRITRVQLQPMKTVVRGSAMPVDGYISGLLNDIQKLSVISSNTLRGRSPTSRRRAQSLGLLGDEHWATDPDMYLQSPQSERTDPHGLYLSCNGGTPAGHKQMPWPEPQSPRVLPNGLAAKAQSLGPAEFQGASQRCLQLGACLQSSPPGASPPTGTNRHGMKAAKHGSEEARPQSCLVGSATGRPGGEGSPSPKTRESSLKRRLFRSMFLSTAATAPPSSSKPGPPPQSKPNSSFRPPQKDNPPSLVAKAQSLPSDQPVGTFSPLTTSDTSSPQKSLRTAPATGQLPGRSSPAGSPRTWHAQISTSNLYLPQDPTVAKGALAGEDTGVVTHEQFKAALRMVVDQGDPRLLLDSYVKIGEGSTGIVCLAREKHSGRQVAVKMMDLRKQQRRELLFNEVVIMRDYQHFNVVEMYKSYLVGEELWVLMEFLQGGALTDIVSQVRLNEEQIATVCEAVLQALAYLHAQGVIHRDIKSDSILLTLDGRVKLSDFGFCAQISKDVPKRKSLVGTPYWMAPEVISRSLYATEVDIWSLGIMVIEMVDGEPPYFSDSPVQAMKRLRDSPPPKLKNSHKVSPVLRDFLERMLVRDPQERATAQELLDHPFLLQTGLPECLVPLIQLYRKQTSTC
Chain of Cyclin-dependent kinase 17 (Q00537 whole entry): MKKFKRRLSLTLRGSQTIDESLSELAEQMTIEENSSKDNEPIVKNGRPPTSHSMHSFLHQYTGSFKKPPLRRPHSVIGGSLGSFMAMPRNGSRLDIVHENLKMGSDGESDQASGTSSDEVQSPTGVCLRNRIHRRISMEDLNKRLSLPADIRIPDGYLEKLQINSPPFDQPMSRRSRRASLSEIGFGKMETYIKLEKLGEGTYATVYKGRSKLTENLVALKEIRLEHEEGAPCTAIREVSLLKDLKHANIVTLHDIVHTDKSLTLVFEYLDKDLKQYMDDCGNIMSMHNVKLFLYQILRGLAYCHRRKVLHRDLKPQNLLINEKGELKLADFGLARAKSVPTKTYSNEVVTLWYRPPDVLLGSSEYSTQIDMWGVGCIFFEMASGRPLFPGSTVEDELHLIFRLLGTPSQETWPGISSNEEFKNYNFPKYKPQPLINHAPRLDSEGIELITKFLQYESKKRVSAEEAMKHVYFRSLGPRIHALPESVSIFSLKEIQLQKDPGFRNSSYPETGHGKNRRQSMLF
Chain of Uncharacterized aarF domain-containing protein kinase 5 (Q3MIX3 whole entry, the tested form may be a part): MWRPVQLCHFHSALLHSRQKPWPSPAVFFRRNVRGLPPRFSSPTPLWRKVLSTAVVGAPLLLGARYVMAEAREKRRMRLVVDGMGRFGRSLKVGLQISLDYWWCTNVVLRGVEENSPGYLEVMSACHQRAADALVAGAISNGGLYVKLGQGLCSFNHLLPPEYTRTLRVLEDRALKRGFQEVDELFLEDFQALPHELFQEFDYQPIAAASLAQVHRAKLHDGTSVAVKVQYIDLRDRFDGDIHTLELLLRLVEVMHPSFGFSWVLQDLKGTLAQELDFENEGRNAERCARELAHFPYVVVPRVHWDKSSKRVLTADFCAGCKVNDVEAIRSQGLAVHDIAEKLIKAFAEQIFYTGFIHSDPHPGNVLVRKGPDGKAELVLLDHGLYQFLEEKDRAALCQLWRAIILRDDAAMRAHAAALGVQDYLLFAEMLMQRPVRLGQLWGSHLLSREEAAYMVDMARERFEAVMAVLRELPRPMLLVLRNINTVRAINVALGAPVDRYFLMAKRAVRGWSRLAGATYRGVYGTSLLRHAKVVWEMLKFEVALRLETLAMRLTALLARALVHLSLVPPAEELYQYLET

The Kd is the concentration at which binding is half-saturated. In the case of `C[C@@H](Nc1cc(F)cc(F)c1)c1cc(C(=O)N(C)C)cc2c(=O)cc(N3CCOCC3)oc12` [AZD-8186], the Kd in [1], in [2] and in experiment [3] was > 30 µM (inactive) each time.
Consider `CC[C@H](Nc1ncnc2[nH]cnc12)c1nc2cccc(F)c2c(=O)n1-c1ccccc1` [IDELALISIB], for which the Kd in experiment [4], in experiment [1], in experiment [2], in experiment [5], in experiment [3] and in experiment [6] was > 30 µM (inactive) throughout. For the same molecule, the Kd in experiment [7] is > 30 µM (inactive).
For the molecule `C[C@@H](c1ccc2nccn2c1)n1nnc2ncc(-c3cnn(C)c3)nc21` [SAVOLITINIB], the Kd in experiment [1], in [2], in experiment [5] and in experiment [8] was > 30 µM (inactive) each time.
Turning to `CN1N=C(N)c2cn([C@@H]3O[C@H](COP(=O)(O)O)[C@@H](O)[C@H]3O)c3ncnc1c23` [TRICIRIBINE PHOSPHATE], the Kd (in [2]; in [5]; in [8]; at Myosin-10) was > 30 µM (inactive) throughout.
In the case of `O=C(c1ccc(F)c(F)c1Nc1ccc(I)cc1F)N1CC(O)([C@@H]2CCCCN2)C1` [COBIMETINIB], the Kd in [1], in [2], in experiment [5], in experiment [3] and in [7] was > 30 µM (inactive) throughout.
In the case of `Cc1ccc(S(=O)(=O)Nc2nc3ccccc3nc2Nc2ccc3nsnc3c2)cc1`, the Kd (in experiment [1]; in [2]; in experiment [5]; in [8]; on Myosin-10; in experiment [6]) was > 30 µM (inactive) throughout. The Kd in [7] was > 30 µM (inactive).
Consider `Cc1nc(N)sc1-c1ccnc(Nc2ccc(N3CCOCC3)cc2)n1` [CYC-116], for which the Kd is 0.007 µM (active) in experiment [1]; > 30 µM (inactive) in experiment [5]; > 30 µM (inactive) in [8]; > 30 µM (inactive) on Myosin-10; > 30 µM (inactive) in experiment [6]; > 30 µM (inactive) in [7].
Regarding `Nc1nc(N)c2nc(-c3cccc(O)c3)c(-c3cccc(O)c3)nc2n1` [TG100-115], the Kd in [5], in experiment [8] and in experiment [7] was > 30 µM (inactive) throughout.
For the molecule `CN1CCN(c2ccc3nc(-c4c(N)c5c(F)cccc5[nH]c4=O)[nH]c3c2)CC1` [DOVITINIB], the Kd (in experiment [4]; on Myosin-10; in [6]) was > 30 µM (inactive) in each case.
As for `C1=C/COCc2cc(ccc2OCCN2CCCC2)Nc2nccc(n2)-c2cccc(c2)COC/1` [PACRITINIB], the Kd (in experiment [2]; in experiment [5]; in [8]; at Myosin-10; in [6]) was > 30 µM (inactive) throughout.
Consider `Cc1cc([C@@H](C)Nc2ccccc2C(=O)O)c2nc(N3CCOCC3)cc(=O)n2c1` [AZD-6482], for which the Kd (in experiment [4]; in experiment [1]; in experiment [2]; in [5]; on Myosin-10; in [3]) was > 30 µM (inactive) throughout. Besides, the Kd in experiment [6] and in experiment [7] was > 30 µM (inactive) in each case.
With `C[C@@H]1CN(Cc2ccc(F)cc2)[C@@H](C)CN1C(=O)c1cc2c(C(=O)C(=O)N(C)C)cn(C)c2cc1Cl` [TALMAPIMOD], the Kd in [4], in experiment [1], in experiment [2], in experiment [3], in experiment [6] and in experiment [7] was > 30 µM (inactive) throughout.
For `O=C(Nc1ccc(-c2ccnc(Nc3ccc(N4CCOCC4)cc3)n2)cc1)C1CCCN1` (stereo not drawn) [XL-019], the Kd in [5], in [3], in experiment [6] and in experiment [7] was > 30 µM (inactive) each time.
For `CCn1c(-c2nonc2N)nc2c(C#CC(C)(C)O)ncc(OC[C@H]3CCCNC3)c21` [GSK-690693], the Kd in experiment [8] is > 30 µM (inactive); in experiment [6] it was 1.07 µM.
For the molecule `CCn1c(=O)c(-c2cc[nH]n2)cc2c(C)nc(N)nc21` [VOXTALISIB], the Kd (in experiment [2]; in [5]; in experiment [8]; on Myosin-10) was > 30 µM (inactive) throughout.
For `Cc1cn(-c2cc(NC(=O)c3ccc(C)c(Nc4nccc(-c5cccnc5)n4)c3)cc(C(F)(F)F)c2)cn1` [NILOTINIB], the Kd (in experiment [5]; in [8]; at Myosin-10; in experiment [6]; in [7]) was > 30 µM (inactive) in each case.
On to `CNC(=O)c1ccc(C)c(-n2c(C)cc(OCc3ccc(F)cc3F)c(Br)c2=O)c1` [PH-797804], for which the Kd in [4], in experiment [1], in experiment [2], in [5], in [3] and in experiment [6] was > 30 µM (inactive) each time. The Kd in experiment [7] is > 30 µM (inactive).
With `C=CC(=O)N1CCC(Oc2cc3c(Nc4ccc(Cl)c(Cl)c4F)ncnc3cc2OC)CC1` [POZIOTINIB], the Kd in experiment [1], in [2], in [5] and in experiment [3] was > 30 µM (inactive) each time.
Consider `CO[C@H]1C[C@@H]2CC[C@@H](C)[C@@](O)(O2)C(=O)C(=O)N2CCCC[C@H]2C(=O)O[C@H]([C@H](C)C[C@@H]2CC[C@@H](OCCO)[C@H](OC)C2)CC(=O)[C@H](C)/C=C(\C)[C@@H](O)[C@@H](OC)C(=O)[C@H](C)C[C@H](C)/C=C/C=C/C=C/1C` [EVEROLIMUS], for which the Kd (in experiment [1]; in [2]; in [5]; on Myosin-10; in experiment [6]; in [7]) was > 30 µM (inactive) throughout.
